From PubChem BioAssay AID248 (DTP/NCI, 2004)
“And” between values parts separate entries of the source, which are not always exact repeats. Equal values may be shown once. Toxic doses and inconclusive results are not listed.

Test system: L1210 leukemia ip in BDF1 mice, survival T/C
Test: NCI In Vivo Anticancer Drug Screen. Data for tumor model L1210 Leukemia (intraperitoneal) in B6D2F1 (BDF1) mice
Settings: endpoint: mean survival time, higher = longer survival
Outline: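 Tumor cells were implanted, animals were treated, and survival was followed. The result divides the treated measurement by the vehicle-control measurement.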

[1] = dose: 75.0 mg/kg/injection, schedule: Q01DX001 (ip), vehicle: saline
[2] = dose: 100.0 mg/kg/injection, schedule: Q01DX001 (ip), vehicle: carboxymethylcellulose (CMC)
[3] = dose: 200.0 mg/kg/injection, schedule: Q01DX001 (ip), vehicle: carboxymethylcellulose (CMC)
[4] = dose: 400.0 mg/kg/injection, schedule: Q01DX001 (ip), vehicle: carboxymethylcellulose (CMC)
[5] = dose: 100.0 mg/kg/injection, schedule: Q04DX003 (ip), vehicle: saline with Tween-80
[6] = dose: 200.0 mg/kg/injection, schedule: Q04DX003 (ip), vehicle: saline with Tween-80
[7] = dose: 400.0 mg/kg/injection, schedule: Q04DX003 (ip), vehicle: saline with Tween-80
[8] = dose: 100.0 mg/kg/injection, schedule: Q04DX003 (ip), vehicle: saline
[9] = dose: 200.0 mg/kg/injection, schedule: Q04DX003 (ip), vehicle: saline
[10] = dose: 400.0 mg/kg/injection, schedule: Q04DX003 (ip), vehicle: saline
[11] = dose: 100.0 mg/kg/injection, schedule: Q01DX009 (ip), vehicle: Klucel (hydroxypropylcellulose) (HPC)
[12] = dose: 200.0 mg/kg/injection, schedule: Q01DX009 (ip), vehicle: Klucel (hydroxypropylcellulose) (HPC)
[13] = dose: 400.0 mg/kg/injection, schedule: Q01DX009 (ip), vehicle: Klucel (hydroxypropylcellulose) (HPC)
[14] = dose: 100.0 mg/kg/injection, schedule: Q01DX009 (ip), vehicle: saline
[15] = dose: 200.0 mg/kg/injection, schedule: Q01DX009 (ip), vehicle: saline
[16] = dose: 400.0 mg/kg/injection, schedule: Q01DX009 (ip), vehicle: saline

COB(OC)C1CCCC1
T/C (dose: 100.0 mg/kg/injection, schedule: Q01DX001 (ip), vehicle: Klucel (hydroxypropylcellulose) (HPC)): 92 % of control | T/C (dose: 200.0 mg/kg/injection, schedule: Q01DX001 (ip), vehicle: Klucel (hydroxypropylcellulose) (HPC)): 95 % of control

Cc1ccc(Cl)cc1N=C=S
T/C [1]: 100 % of control | T/C (dose: 150.0 mg/kg/injection, schedule: Q01DX001 (ip), vehicle: saline): 101 % of control | T/C (dose: 300.0 mg/kg/injection, schedule: Q01DX001 (ip), vehicle: saline): 106 % of control

CC/C(=N\[N+](C)(C)C)c1ccccc1
T/C (dose: 18.8 mg/kg/injection, schedule: Q04DX003 (ip), vehicle: saline): 100 % of control | T/C (dose: 37.5 mg/kg/injection, schedule: Q04DX003 (ip), vehicle: saline): 97 % of control | T/C [1]: 100 % of control | T/C (dose: 75.0 mg/kg/injection, schedule: Q04DX003 (ip), vehicle: saline): 100 % of control

C[N+]1(CCCl)CCOCC1
T/C (dose: 20.0 mg/kg/injection, schedule: Q01DX009 (ip), vehicle: Klucel (hydroxypropylcellulose) (HPC)): 97 % of control | T/C (dose: 40.0 mg/kg/injection, schedule: Q01DX009 (ip), vehicle: Klucel (hydroxypropylcellulose) (HPC)): 102 % of control

NNC(=S)NCCc1ccccc1
T/C (dose: 25.0 mg/kg/injection, schedule: Q01DX009 (ip), vehicle: Klucel (hydroxypropylcellulose) (HPC)): 101 % of control | T/C (dose: 50.0 mg/kg/injection, schedule: Q01DX009 (ip), vehicle: Klucel (hydroxypropylcellulose) (HPC)): 105 % of control

Cc1ccc(C(=O)N/N=C/C(CC(O)C(O)CO)=N/NC(=O)c2ccc(C)cc2)cc1 (stereo not drawn)
T/C (dose: 100.0 mg/kg/injection, schedule: Q04DX003 (ip), vehicle: alcohol): 93 % of control | T/C (dose: 200.0 mg/kg/injection, schedule: Q04DX003 (ip), vehicle: alcohol): 96 % of control

Nc1cc(Cl)cc2c1-c1ccc(Cl)cc1/C2=N\O
T/C [2]: 100 % of control | T/C [3]: 97 % of control | T/C [4]: 97 % of control

COc1cc(C2=N/C(=C\c3cccc([N+](=O)[O-])c3)C(=O)O2)cc(OC)c1OC
T/C (dose: 25.0 mg/kg/injection, schedule: Q04DX002 (ip), vehicle: saline with Tween-80): 87 % of control | T/C (dose: 50.0 mg/kg/injection, schedule: Q04DX002 (ip), vehicle: saline with Tween-80): 90 % of control | T/C (dose: 100.0 mg/kg/injection, schedule: Q04DX002 (ip), vehicle: saline with Tween-80): 93 % of control and 89 % of control

O=C(O)c1ccccc1NC(c1ccccc1)c1ccc2cccnc2c1O (stereo not drawn)
T/C (dose: 100.0 mg/kg/injection, schedule: Q01DX001 (ip), vehicle: saline): 89 % of control | T/C (dose: 200.0 mg/kg/injection, schedule: Q01DX001 (ip), vehicle: saline): 89 % of control

CC(=O)Nc1ccc(/C=C/c2cc[n+](C)cc2)cc1
T/C [5]: 97 % of control | T/C [6]: 111 % of control | T/C [7]: 102 % of control

Cc1ccc(C(=O)c2ccccc2)c(C)c1
T/C [2]: 86 % of control | T/C [4]: 92 % of control

c1ccc2cc(CCc3cc4ccccc4cn3)ncc2c1
T/C [8]: 105 % of control | T/C [9]: 94 % of control | T/C [10]: 87 % of control

C[C@@H]1CCC([C@@H](C)[C@H]2CC[C@H]3[C@@H]4CC[C@H]5C[C@@H](O)CC[C@]5(C)[C@H]4CC[C@]23C)=NC1
T/C (dose: 1.56 mg/kg/injection, schedule: Q01DX015 (ip), vehicle: saline): 94 % of control | T/C (dose: 3.13 mg/kg/injection, schedule: Q01DX015 (ip), vehicle: saline): 97 % of control | T/C (dose: 6.25 mg/kg/injection, schedule: Q01DX015 (ip), vehicle: saline): 94 % of control | T/C (dose: 12.5 mg/kg/injection, schedule: Q01DX015 (ip), vehicle: saline): 94 % of control | T/C (dose: 12.5 mg/kg/injection, schedule: Q01DX Z (ip), vehicle: saline): 93 % of control | T/C (dose: 25.0 mg/kg/injection, schedule: Q01DX Z (ip), vehicle: saline): 106 % of control | T/C (dose: 50.0 mg/kg/injection, schedule: Q01DX Z (ip), vehicle: saline): 93 % of control | T/C (dose: 100.0 mg/kg/injection, schedule: Q01DX Z (ip), vehicle: saline): 97 % of control | T/C (dose: 125.0 mg/kg/injection, schedule: Q01DX001 (ip), vehicle: saline): 93 % of control

Cc1cc(C)c(NC(N)=S)cc1C
T/C (dose: 100.0 mg/kg/injection, schedule: Q04DX002 (ip), vehicle: Klucel (hydroxypropylcellulose) (HPC)): 92 % of control | T/C (dose: 200.0 mg/kg/injection, schedule: Q04DX002 (ip), vehicle: Klucel (hydroxypropylcellulose) (HPC)): 94 % of control

OC(c1ccccc1)(c1ccccc1)c1ccccc1CNc1ccccc1
T/C (dose: 50.0 mg/kg/injection, schedule: Q01DX001 (ip), vehicle: carboxymethylcellulose (CMC)): 102 % of control | T/C [2]: 88 % of control | T/C [3]: 102 % of control | T/C [4]: 96 % of control

C#CC(C)OCC(C)OC (stereo not drawn)
T/C (dose: 25.0 mg/kg/injection, schedule: Q01DX009 (ip), vehicle: acetone): 97 % of control | T/C (dose: 50.0 mg/kg/injection, schedule: Q01DX009 (ip), vehicle: acetone): 103 % of control | T/C (dose: 100.0 mg/kg/injection, schedule: Q04DX003 (ip), vehicle: acetone): 102 % of control

CCCCCCCCCCCCCC(=O)OC1C(CO)OC2C1Oc1nc(=N)ccn12 (stereo not drawn)
T/C (dose: 25.0 mg/kg/injection, schedule: Q01DX009 (ip), vehicle: other): 152 % of control | T/C (dose: 50.0 mg/kg/injection, schedule: Q01DX009 (ip), vehicle: other): 171 % of control | T/C (dose: 100.0 mg/kg/injection, schedule: Q01DX009 (ip), vehicle: other): 214 % of control | T/C (dose: 200.0 mg/kg/injection, schedule: Q01DX009 (ip), vehicle: other): 179 % of control

CCC(=O)OC1(c2ccccc2)CCN(CCCC(=O)c2ccccc2)CC1
T/C (dose: 20.0 mg/kg/injection, schedule: Q04DX003 (ip), vehicle: Klucel (hydroxypropylcellulose) (HPC)): 111 % of control | T/C (dose: 40.0 mg/kg/injection, schedule: Q04DX003 (ip), vehicle: Klucel (hydroxypropylcellulose) (HPC)): 96 % of control

Cc1ncc(C#N)c(=O)[nH]1
T/C (dose: 25.0 mg/kg/injection, schedule: Q04DX003 (ip), vehicle: saline with Tween-80): 92 % of control | T/C (dose: 50.0 mg/kg/injection, schedule: Q04DX003 (ip), vehicle: saline with Tween-80): 90 % of control | T/C [5]: 90 % of control

COc1ccc(C(=O)Nc2ccccc2)cc1[N+](=O)[O-]
T/C [11]: 96 % of control | T/C (dose: 100.0 mg/kg/injection, schedule: Q01DX009 (ip), vehicle: saline with Tween-80): 101 % of control | T/C [5]: 101 % of control | T/C [12]: 98 % of control | T/C (dose: 200.0 mg/kg/injection, schedule: Q01DX009 (ip), vehicle: saline with Tween-80): 94 % of control | T/C [6]: 97 % of control | T/C [13]: 98 % of control | T/C (dose: 400.0 mg/kg/injection, schedule: Q01DX009 (ip), vehicle: saline with Tween-80): 86 % of control | T/C [7]: 101 % of control

Cc1ccc(Cl)cc1NC(=O)c1ccccc1Cl
T/C [11]: 100 % of control | T/C [14]: 100 % of control | T/C [8]: 95 % of control | T/C [12]: 94 % of control | T/C [15]: 105 % of control | T/C [9]: 122 % of control | T/C [13]: 87 % of control | T/C [16]: 100 % of control | T/C [10]: 111 % of control

Cn1c[n+](C)cc1C(=O)[O-]
T/C [14]: 91 % of control | T/C [8]: 97 % of control | T/C [15]: 97 % of control | T/C [9]: 102 % of control | T/C [16]: 95 % of control | T/C [10]: 109 % of control

CCCC[P+](C)(CCCC)CCCC
T/C (dose: 8.8 mg/kg/injection, schedule: Q01DX Z (ip), vehicle: saline): 98 % of control | T/C (dose: 13.3 mg/kg/injection, schedule: Q01DX Z (ip), vehicle: saline): 93 % of control | T/C (dose: 20.0 mg/kg/injection, schedule: Q01DX Z (ip), vehicle: saline): 86 % of control
